Measurements taken from PubChem BioAssay (NCI).
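Following 48 hours of exposure in 96-well plates, responses at five concentrations were used to interpolate endpoints linearly. Abbreviation: GI50, concentration required for 50% inhibition of growth. TGI is the concentration that stops growth completely.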

Key:
Assay in all cases: DTP human tumour cell line panel, 48 h
[1] = system: 786-0 renal
[2] = system: A549 NSCLC
[3] = system: CCRF-CEM leukemia
[4] = system: DLD-1 colon
[5] = system: DMS 114 small cell lung
[6] = system: DMS 273 small cell lung
[7] = system: LXFL 529 NSCLC
[8] = system: M14 melanoma
[9] = system: NCI-H226 lung
[10] = system: NCI-H460 lung
[11] = system: RPMI-8226 leukemia
[12] = system: SK-MEL-2 melanoma
[13] = system: XF 498 CNS
[14] = system: EKVX NSCLC
[15] = system: K-562 leukemia
[16] = system: PC-3 prostate
[17] = system: SR leukemia

Structure (SMILES)	TGI [1] [µM]	TGI [2] [µM]	TGI [3] [µM]	TGI [4] [µM]	TGI [5] [µM]	TGI [6] [µM]	TGI [7] [µM]	TGI [8] [µM]	TGI [9] [µM]	TGI [10] [µM]	TGI [11] [µM]	TGI [12] [µM]	TGI [13] [µM]	TGI [14] [µM]	TGI [15] [µM]	TGI [16] [µM]	TGI [17] [µM]	GI50 [9] [µM]	GI50 [17] [µM]
CC(C)C(Sc1nc(-c2ccccc2)c(-c2ccccc2)[nH]1)C(=O)NN (configuration not stated)	> 100	> 100	> 100	> 100	> 100	> 100	> 100	> 100	> 100	> 100	> 100	> 100	> 100	–	–	–	–	–	–
COC(=O)NC12CC3CC(CC(F)(C3)C1)C2	> 100	> 100	> 100	> 100	–	> 100	–	> 100	–	> 100	> 100	> 100	> 100	> 100	> 100	–	–	–	–
Oc1ccc(Cc2nccc3cc(O)c(O)cc23)cc1O	> 100	> 100	60.3	–	–	–	–	78.2	> 100	> 100	> 100	> 100	–	> 100	> 100	> 100	96.8	–	–
CC(=O)c1cccc(Nc2nc3ccc(Cl)cc3c3[nH]c4ccccc4c23)c1	11.3	8.45	> 100	–	–	–	–	> 100	67.1	6.41	> 100	30.8	–	14.9	> 56.7	30.9	> 100	10.4	4.21
CC(=O)C(CN(Cc1ccccc1)Cc1ccccc1)C(c1ccccc1)c1c(O)c2ccccc2oc1=O (configuration not stated)	> 100	> 100	> 100	> 100	–	–	> 100	> 100	> 100	> 100	> 100	> 100	> 100	> 100	> 100	–	> 100	–	–
COc1ccc2c(c1)-c1[nH]c3ccc(OC)cc3c1CC2	34	30.2	80.6	–	–	–	–	29.5	24.3	32.9	48.2	28.4	–	20.8	39.6	24.1	53.2	–	–
Cc1ccc(N2CCC3(CC2)OCCO3)cc1	> 100	> 100	> 100	–	–	–	–	> 100	> 100	> 100	> 100	> 100	–	> 100	> 100	> 100	> 100	–	–
O=C(Cc1ccc(Cl)cc1)Nc1ccc2oc(-c3ccccc3)nc2c1	> 100	> 100	> 100	–	–	–	–	> 100	> 100	> 100	> 100	> 100	–	> 100	> 100	> 100	> 100	–	–
CC1=NN(C(=O)CC(=O)Nc2ccc(C)cc2)C(=O)C1N=Nc1ccc(S(=O)(=O)c2ccc(N=NC3C(=O)N(C(=O)CC(=O)Nc4ccc(C)cc4)N=C3C)cc2)cc1 (configuration not stated)	> 100	> 100	> 100	–	–	–	–	> 100	> 100	> 100	> 100	> 100	–	> 100	> 100	> 100	> 100	–	–
O=C(O)CCc1cccc2c1oc1c(CCC(=O)O)cccc12	> 100	> 100	> 100	> 100	> 100	> 100	> 100	> 100	> 100	> 100	> 100	> 100	> 100	–	> 100	–	> 100	–	–
O=P1(c2ccccc2)C(c2ccccc2)=CC=C1c1ccccc1	> 100	> 100	62.7	–	–	–	–	> 100	> 100	> 100	19.4	40.9	–	> 100	22.4	62.8	52.7	–	–
c1ccc2c(c1)cc1c3[nH]c4ccccc4c3ccn21	> 10	> 10	> 10	–	–	–	–	> 10	> 10	> 10	> 10	> 10	–	> 10	> 10	> 10	> 10	–	–
N#CCCN(c1ccc(C=Nc2ccccc2Cl)cc1)S(=O)(=O)c1ccccc1	> 100	> 100	–	> 100	> 100	> 100	> 100	> 100	> 100	> 100	> 100	> 100	> 100	> 100	> 100	–	> 100	–	–
NC(=S)N/N=C1/CCCC2CCCC[C@@H]12 (some centres not stated)	> 100	> 100	> 100	–	–	–	–	> 100	> 100	> 100	> 100	> 100	–	> 100	> 100	> 100	> 100	–	–
CC1(C)C/C(=N/O)c2c(nc3ccc4ccccc4c3c2-c2ccc(Cl)cc2)C1	15.2	51	27.6	–	–	–	–	> 100	46.3	19.7	> 100	> 100	–	29.7	65.6	> 100	21	–	–
COc1ccc(N2C(=O)C3c4[nH]c5ccccc5c4C4CC(C)CC(C)C4C3C2=O)cc1 (configuration not stated)	> 100	> 100	> 100	> 100	> 100	> 100	> 100	> 100	> 100	–	> 100	–	> 100	> 100	> 100	–	> 100	–	–
O=c1n(-c2ccccc2)c(=O)n2n1C1Cc3ccccc3C12 (configuration not stated)	> 100	> 100	> 100	–	–	–	–	> 100	> 100	> 100	> 100	> 100	–	> 100	> 100	> 100	> 100	–	–
